Reference: PubChem BioAssay AID256 (DTP/NCI, 2004)
Where “and” joins values, the source holds several entries; their conditions need not be identical. Equal values may be shown once. Inconclusive results and toxic doses are left out. How the source made its calls: active means survival T/C of 150% or more; inactive means T/C below 125% in these data.

System: CD2F1 mice, L1210 leukemia ip, survival T/C
Test: NCI In Vivo Anticancer Drug Screen. Data for tumor model L1210 Leukemia (intraperitoneal) in CD2F1 (CDF1) mice
Details: higher = longer survival
How it was run: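 In this screen, transplantable tumors were grown in mice given either the compound or its vehicle. Results were expressed as the treated measurement relative to the control measurement.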

[1] = endpoint: mean survival time, dose: 100.0 mg/kg/injection, schedule: Q01DX009 (ip), vehicle: saline with Tween-80
[2] = endpoint: mean survival time, dose: 200.0 mg/kg/injection, schedule: Q01DX009 (ip), vehicle: saline with Tween-80
[3] = endpoint: mean survival time, dose: 400.0 mg/kg/injection, schedule: Q01DX009 (ip), vehicle: saline with Tween-80

Measured: T/C

CC(CN(C)C)CN1c2ccccc2Sc2ccc(C(F)(F)F)cc21 (centres undefined)
inactive: endpoint: mean survival time, dose: 0.63 mg/kg/injection, schedule: Q04DX003 (ip), vehicle: saline 94 % of control | endpoint: mean survival time, dose: 1.25 mg/kg/injection, schedule: Q04DX003 (ip), vehicle: saline 96 % of control | endpoint: mean survival time, dose: 2.5 mg/kg/injection, schedule: Q04DX003 (ip), vehicle: saline 91 % of control | endpoint: mean survival time, dose: 6.25 mg/kg/injection, schedule: Q01DX009 (ip), vehicle: saline 91 % of control | endpoint: mean survival time, dose: 12.5 mg/kg/injection, schedule: Q01DX009 (ip), vehicle: saline 102 % of control

CC(C)(C)OOC(=O)C1CCCCCCC1
inactive: endpoint: mean survival time, dose: 100.0 mg/kg/injection, schedule: Q04DX003 (ip), vehicle: saline with Tween-80 98 % of control | endpoint: mean survival time, dose: 200.0 mg/kg/injection, schedule: Q04DX003 (ip), vehicle: saline with Tween-80 96 % of control | endpoint: mean survival time, dose: 400.0 mg/kg/injection, schedule: Q04DX003 (ip), vehicle: saline with Tween-80 96 % of control

C[C@@H]1C[C@@H]([C@H](O)CC2CC(=O)NC(=O)C2)C(=O)[C@@H](C)C1
inactive: endpoint: mean survival time, dose: 5.0 mg/kg/injection, schedule: Q01DX009 (ip), vehicle: saline 104 % of control and 109 % of control | endpoint: mean survival time, dose: 10.0 mg/kg/injection, schedule: Q01DX007 (ip), vehicle: saline 107 % of control | endpoint: mean survival time, dose: 10.0 mg/kg/injection, schedule: Q03DX003 (ip), vehicle: saline 96 % of control | endpoint: mean survival time, dose: 10.0 mg/kg/injection, schedule: Q04DX003 (ip), vehicle: saline 100 % of control | endpoint: mean survival time, dose: 20.0 mg/kg/injection, schedule: Q01DX007 (ip), vehicle: saline 107 % of control | endpoint: mean survival time, dose: 20.0 mg/kg/injection, schedule: Q03DX003 (ip), vehicle: saline 100 % of control | endpoint: mean survival time, dose: 20.0 mg/kg/injection, schedule: Q04DX003 (ip), vehicle: saline 100 % of control | endpoint: mean survival time, dose: 40.0 mg/kg/injection, schedule: Q01DX007 (ip), vehicle: saline 115 % of control | endpoint: mean survival time, dose: 40.0 mg/kg/injection, schedule: Q03DX003 (ip), vehicle: saline 104 % of control | endpoint: mean survival time, dose: 40.0 mg/kg/injection, schedule: Q04DX003 (ip), vehicle: saline 106 % of control | endpoint: mean survival time, dose: 80.0 mg/kg/injection, schedule: Q01DX009 (ip), vehicle: saline 120 % of control | endpoint: mean survival time, dose: 160.0 mg/kg/injection, schedule: Q01DX009 (ip), vehicle: saline 89 % of control | endpoint: median survival time, dose: 12.5 mg/kg/injection, schedule: Q01DX009 (ip), vehicle: saline 109 % of control | endpoint: median survival time, dose: 25.0 mg/kg/injection, schedule: Q01DX009 (ip), vehicle: saline 114 % of control and 119 % of control | endpoint: median survival time, dose: 200.0 mg/kg/injection, schedule: Q01DX009 (ip), vehicle: saline 101 % of control

N=C(N)c1ccccc1
inactive: endpoint: mean survival time, dose: 100.0 mg/kg/injection, schedule: Q01DX001 (ip), vehicle: saline 94 % of control | endpoint: mean survival time, dose: 200.0 mg/kg/injection, schedule: Q01DX001 (ip), vehicle: saline 100 % of control | endpoint: mean survival time, dose: 400.0 mg/kg/injection, schedule: Q01DX001 (ip), vehicle: saline 94 % of control

CC(N)C(=O)NC(CO)C(=O)O (centres undefined)
inactive: endpoint: mean survival time, dose: 100.0 mg/kg/injection, schedule: Q01DX009 (ip), vehicle: saline 103 % of control | endpoint: mean survival time, dose: 100.0 mg/kg/injection, schedule: Q04DX003 (ip), vehicle: saline 97 % of control | endpoint: mean survival time, dose: 200.0 mg/kg/injection, schedule: Q01DX009 (ip), vehicle: saline 95 % of control | endpoint: mean survival time, dose: 200.0 mg/kg/injection, schedule: Q04DX003 (ip), vehicle: saline 93 % of control | endpoint: mean survival time, dose: 400.0 mg/kg/injection, schedule: Q01DX009 (ip), vehicle: saline 97 % of control | endpoint: mean survival time, dose: 400.0 mg/kg/injection, schedule: Q04DX003 (ip), vehicle: saline 93 % of control

O=C(O)/C(=C\c1ccccc1)NC(=O)c1ccccc1
inactive: [1] 95 % of control | [2] 96 % of control | [3] 105 % of control

COC1=CC=C2C3Cc4ccc(OC)c(O)c4C2(C1)CN3C (centres undefined)
inactive: endpoint: mean survival time, dose: 25.0 mg/kg/injection, schedule: Q01DX009 (ip), vehicle: Klucel (hydroxypropylcellulose) (HPC) 102 % of control | endpoint: mean survival time, dose: 50.0 mg/kg/injection, schedule: Q01DX009 (ip), vehicle: Klucel (hydroxypropylcellulose) (HPC) 104 % of control | endpoint: mean survival time, dose: 100.0 mg/kg/injection, schedule: Q01DX009 (ip), vehicle: Klucel (hydroxypropylcellulose) (HPC) 103 % of control

O=c1cc(CCl)n2cnc3c(ncn3C3OC(CO)C(O)C3O)c2n1 (centres undefined)
inactive: endpoint: median survival time, dose: 12.5 mg/kg/injection, schedule: Q01DX005 (ip), vehicle: saline with Tween-80 103 % of control | endpoint: median survival time, dose: 25.0 mg/kg/injection, schedule: Q01DX005 (ip), vehicle: saline with Tween-80 102 % of control | endpoint: median survival time, dose: 50.0 mg/kg/injection, schedule: Q01DX005 (ip), vehicle: saline with Tween-80 96 % of control | endpoint: median survival time, dose: 100.0 mg/kg/injection, schedule: Q01DX005 (ip), vehicle: saline with Tween-80 104 % of control | endpoint: median survival time, dose: 200.0 mg/kg/injection, schedule: Q01DX005 (ip), vehicle: saline with Tween-80 98 % of control

Nc1nc(N)c(N=Nc2ccc(SCC(=O)O)cc2)c(=O)[nH]1
inactive: [1] 100 % of control | [2] 94 % of control | [3] 101 % of control

COc1ccc(C(OC(=O)Oc2ccccc2)c2ccccc2)cc1 (centres undefined)
inactive: endpoint: mean survival time, dose: 100.0 mg/kg/injection, schedule: Q04DX002 (ip), vehicle: other 93 % of control | endpoint: mean survival time, dose: 200.0 mg/kg/injection, schedule: Q04DX002 (ip), vehicle: other 96 % of control | endpoint: mean survival time, dose: 400.0 mg/kg/injection, schedule: Q04DX002 (ip), vehicle: other 96 % of control
